Laboratory results reported in PubChem BioAssay AID1159565 (GlaxoSmithKline (GSK), 2015).
pIC50: −log10 of the molar value. Calls of active or inactive are those of the source. No rule for the calls is given here.

Test system: T. cruzi-infected H9C2 cardiomyocytes, high-content imaging
Assay: anti-T. cruzi activity in infected cardiomyocytes – imaging, H9C2 host cardiomyocytes, host toxicity (AID 1159565);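 also: infected cells incubated 72 h after plating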
[1] = measured here: H9C2 host cell toxicity
[2] = measured here: amastigotes per cell

Row | SMILES | pIC50 | pIC50 [1] | pIC50 [2] | IC50
1 | Clc1ccc(CN2CCN(C3=NCCN3)CC2)cc1Cl | 5.00 | < 4.30 | 6.00 | 
2 | c1ccc2c(CCOc3nccnc3-c3ccncc3)c[nH]c2c1 | 6.80 | < 4.30 | 6.80 | 
3 | CC1=NN(C(=O)CCn2cnc([N+](=O)[O-])n2)C(O)(C(F)(F)F)C1 (stereo not drawn) | 5.20 | < 4.30 | 5.89 | 
4 | Cc1[nH]nc2c1C(c1ccc(OCc3ccccc3F)cc1)SCC(=O)N2 (stereo not drawn) | 5.49 | < 4.30 | 6.10 | 
5 | CN(Cc1ccccc1)Cc1nnnn1C1CCN(Cc2ccc(-n3ccnc3)cc2)CC1 | 6.49 | < 4.30 | 6.60 | 
6 | O=C(Nc1ccc(C(=O)N2CCCC2c2ccc3c(c2)OCCCO3)cc1)c1ccco1 (stereo not drawn) | 6.00 | < 4.30 | 6.20 | 
7 | O=C(NCC(c1cccs1)N1CCOCC1)c1ccc([N+](=O)[O-])o1 (stereo not drawn) | 4.80 | 5.30 | 4.80 | 
8 | Cc1cc(N(C)C)nc2ccc(Cc3cnc(N)nc3N)cc12 | 5.20 | < 4.30 | 5.49 | 
9 | COCc1cc(Nc2ccccc2)nc(-c2ccccn2)n1 | 4.60 | 5.40 | 4.89 | 
10 | O=C(NC1CCN(C2Cc3ccc(NS(=O)(=O)c4cc(F)cc(F)c4)cc3C2)CC1)C1CC1 (stereo not drawn) |  | < 4.30 | < 4.30 | > 50000 nM (inactive)
11 | O=C(NCCc1ccccn1)C(c1cn[nH]c1)N1CCN(c2ccc(Cl)c(Cl)c2)CC1 (stereo not drawn) | 6.80 | < 4.30 | 6.89 | 
12 | Cn1c(CN2CCN(c3ncc(C(F)(F)F)cc3Cl)CC2)nc2ccncc21 | 6.00 | < 4.30 | 6.00 | 
13 | COc1ccc(S(=O)(=O)Nc2ccc(C(=O)Nc3nc(-c4ccccn4)cs3)cc2)cc1 | 6.10 | 5.20 | 6.20 | 
14 | Cn1nccc1NC(=O)Cn1ccc(-c2ccncc2)n1 |  | < 4.30 | < 4.30 | > 50000 nM (inactive)
15 | CCN(CC)c1nc(Nc2ccncc2)nc2ccccc12 | 7.10 | 5.10 | 8.30 | 
16 | CN(C)CCOc1ccc(N2CCN(S(=O)(=O)c3ccc(Cl)cc3)CC2)cc1 | 6.20 | < 4.30 | 6.30 | 
17 | Cc1cc2nc(CN(C)Cc3ncccc3C)[nH]c2cc1C | 6.00 | 4.89 | 6.30 | 
18 | CC(Cn1ccnc1)NC(=O)COc1ccc(Cl)c(Cl)c1 (stereo not drawn) | 6.30 | < 4.30 | 6.40 | 
19 | CN(C)Cc1ccc(-c2ccc(S(=O)(=O)NCC3CCCO3)c(F)c2)cc1 (stereo not drawn) | 5.30 | 4.20 | 5.70 | 
20 | CCOc1ccc(NC(=O)C=Cc2ccc(CC)o2)cc1 | 4.60 | < 4.30 | 4.80 | 
21 | Cc1nc(-c2nc(NCc3ccc(Cl)cc3)c3cccnc3c2O)n[nH]1 | 6.10 | 4.60 | 5.89 | 
22 | Cc1cccc(NS(=O)(=O)c2ccc3c(c2)C(=O)c2cc(S(=O)(=O)Nc4cccc(C)c4C)ccc2-3)c1C | 6.40 | 4.49 | 6.40 | 
23 | CC(C)CC(=O)Nc1cc(C2CC2)nn1-c1nc2c(c(=O)[nH]1)CCCC2 | 6.30 | 5.60 | 6.89 | 
24 | Oc1c(-c2n[nH]c(CCc3ccccc3)n2)ncc2cccnc12 | 6.70 | 4.80 | 6.70 | 

Row | SMILES | pIC50 | pIC50 [1] | pIC50 [2] | IC50
25 | O=C(CCc1ccc(-c2ccccc2)o1)N1CCN(c2ccc(O)cc2)CC1 | 5.89 | < 4.30 | 6.10 | 
26 | CCOC(=O)c1noc(N)c1-c1ccccc1 |  | < 4.30 | < 4.30 | > 50000 nM (inactive)
27 | CC1(Oc2cncc(Cl)c2)CCN(Cc2cc3ccccc3[nH]2)C1 (stereo not drawn) | 5.80 | 5.00 | 6.00 | 
28 | O=C(Nc1nc(-c2ccccn2)cs1)C1CCc2ccccc2C1 (stereo not drawn) | 5.60 | 5.40 | 5.70 | 
29 | Clc1cc(Br)ccc1OCCCCn1ccnc1 | 6.60 | 4.60 | 6.49 | 
30 | CC(C)Nc1nc(Cl)nc2ccccc12 | 5.00 | 5.10 | 5.40 | 
31 | CS(=O)(=O)c1ccccc1C(=O)N(Cc1ccccc1)c1ccccc1 |  | < 4.30 | 4.40 | > 50000 nM (inactive)
32 | C=CCn1nc([N+](=O)[O-])nc1Oc1ccc(Cl)cc1Cl | 6.60 | < 4.30 | 6.89 | 
33 | Cc1nn(C2CCS(=O)(=O)C2)c(C)c1CN(C)C(=O)C=Cc1sc2ccccc2c1Cl (stereo not drawn) | 6.30 | < 4.30 | 6.49 | 
34 | COc1ccc(NC(=O)c2ccc(NC(=O)CN(c3ccccc3C)S(C)(=O)=O)cc2)cc1 | 4.60 | 4.60 | 4.70 | 
35 | OC1CCC(Nc2nccc(-c3sc(C4CCOCC4)nc3-c3ccc(F)c(F)c3)n2)CC1 (stereo not drawn) | 6.49 | 4.49 | 6.70 | 
36 | CC(=O)Nc1ccc(-c2csc(NC(=O)c3ccc([N+](=O)[O-])s3)n2)cc1 | 6.89 | 5.30 | 7.00 | 
37 | O=C(NC(CO)c1ccc(F)cc1)c1ccc(-c2c[nH]c3ncccc23)s1 (stereo not drawn) | 4.80 | 5.40 | 4.89 | 
38 | O=C(NCCCn1cnc2ccccc21)c1ccc(NC(=O)c2ccco2)cc1 | 5.70 | < 4.30 | 5.89 | 
39 | CCc1ccccc1[C@@H](C)NC(=O)c1cnc2c(cnn2CC)c1NC1CCN(C(N)=O)CC1 |  | < 4.30 | 4.40 | > 50000 nM (inactive)
40 | CCOc1ccc(Nc2ccc(S(=O)(=O)N3CCN(C)CC3)cc2[N+](=O)[O-])cc1OCC |  | < 4.30 | 5.49 | > 50000 nM (inactive)
41 | CC(c1cc(Cl)cc(Cl)c1)N(C)c1ncc2c(N)nc(N)nc2n1 (stereo not drawn) | 8.70 | 5.10 | 9.00 | 
42 | COc1ccc(-c2cnc(NC(=O)c3ccc(F)cc3)n2C)cc1 | 5.30 | < 4.30 | 5.70 | 
43 | COc1ccc(S(=O)(=O)NCc2ccc(-c3ccc(CN(C)CCO)cc3)cc2)cc1 | 5.60 | < 4.30 | 5.89 | 
44 | CN(C)CCN(C)Cc1ccc(F)cc1NS(=O)(=O)c1ccc(Cl)c(Cl)c1 | 5.60 | 5.20 | 5.70 | 
45 | CCOc1ccc(OCC(=O)N2c3ccccc3CC2C(=O)NC)cc1 (stereo not drawn) |  | < 4.30 | < 4.30 | > 50000 nM (inactive)
46 | COc1cc(NC(=O)Nc2cccc(CNC(=O)OC3CCCCC3)c2)ccc1-c1cnco1 | 4.60 | 4.80 | 4.49 | 
47 | O=C(Cn1cnc2cc([N+](=O)[O-])ccc2c1=O)NCCc1ccc(Cl)cc1Cl | 6.40 | < 4.30 | 6.70 | 
48 | O=C(Cc1ccc2c(c1)CCC2)Nc1n[nH]c(-c2ccccn2)n1 | 5.00 | < 4.30 | 5.00 | 

Row | SMILES | pIC50 | pIC50 [1] | pIC50 [2] | IC50
49 | Cn1nc(-c2ccc(NC(=O)Cc3ccccc3Cl)cc2)c2c(N)ncnc21 | 5.89 | 5.10 | 6.00 | 
50 | NCc1ccc2c(Cl)cc(Cl)c(O)c2n1 | 5.70 | 5.20 | 5.89 | 
51 | CS(=O)(=O)c1cccc(-c2cnc(N)c3c(-c4ccc(CO)cc4)csc23)c1 | 6.20 | < 4.30 | 6.49 | 
52 | c1cncc(CN(Cc2ccco2)Cc2cn[nH]c2-c2cccs2)c1 | 7.30 | < 4.30 | 7.40 | 
53 | O=C(NNC(=O)c1ccccn1)c1ccc(-c2ccccc2)cc1 | 5.80 | 5.70 | 5.89 | 
54 | CCN(C)Cc1ccc(N2CCC(NS(=O)(=O)c3ccc4c(c3)CCO4)CC2)nc1 | 5.89 | < 4.30 | 6.00 | 
55 | CNc1cncc(C2CCCN2C(=O)Cc2ccc3ccccc3c2)n1 (stereo not drawn) | 6.80 | < 4.30 | 6.80 | 
56 | CCCN1CCN(Cc2ccc(S(=O)(=O)Nc3cccc(C)c3)cc2)CC1 | 6.10 | < 4.30 | 6.20 | 
57 | COc1cnc2ccc(=O)n(CCN3CCC(NC(=O)Cc4ccc(Cl)c(Cl)c4)CC3)c2c1 | 6.40 | 5.20 | 6.80 | 
58 | COc1cnc2ccc(=O)n(CCN3CCC(NC(=O)c4ccc(Cl)cc4)CC3)c2c1 | 6.60 | 6.20 | 7.10 | 
59 | COc1cc(-c2nc(N3CCOCC3)sc2-c2ccnc(NC3CCOCC3)n2)ccc1Cl | 6.80 | < 4.30 | 7.00 | 
60 | Cc1c([N+](=O)[O-])c(C(=O)Nc2sc3c(c2C#N)CCC(C)C3)nn1C (stereo not drawn) | 5.60 | < 4.30 | 5.80 | 
61 | CC(C)CC(=O)NC(c1cccs1)c1ccc2cccnc2c1O (stereo not drawn) | 5.89 | 5.70 | 6.10 | 
62 | COC(=O)c1ccc(-c2cnc3ccc(NCc4ccccn4)nn23)cc1 | 5.10 | < 4.30 | 5.30 | 
63 | Nc1nc(-c2ccccn2)nc(-n2nc(-c3ccccc3)cc2N)n1 | 5.60 | 5.70 | 6.49 | 
64 | O=C(c1ccc(Cl)cc1)c1ccc(OC(=O)N2CCOCC2)cc1 |  | < 4.30 | 5.20 | > 50000 nM (inactive)
65 | CCN(Cc1nc2ccc(C(=O)N3CCN(c4ncccn4)CC3)cc2[nH]1)C1CCCc2cccnc21 (stereo not drawn) | 4.89 | 4.80 | 5.70 | 
66 | Oc1cccnc1-c1n[nH]c(Cc2ccccc2)n1 | 5.10 | 4.80 | 5.20 | 
67 | O=C(NCCc1cccnc1)c1csc(-c2ccccc2)n1 | 6.30 | < 4.30 | 6.40 | 
68 | COc1ccc(S(=O)(=O)NC(C)C)cc1Nc1ncc(-c2cccc(F)c2)cn1 | 6.40 | < 4.30 | 6.49 | 
69 | COc1ccnc2[nH]cc(-c3cc(C(=O)N[C@H](CO)c4ccccc4)co3)c12 | 4.70 | 6.49 | 5.10 | 
70 | CC(=O)Nc1nc(-c2cc(C)ccc2C)c(C)s1 | 6.70 | < 4.30 | 6.80 | 
71 | O=C(Nc1ccccc1C(=O)Nc1ccccn1)c1ccco1 |  | < 4.30 | < 4.30 | > 50000 nM (inactive)
